The test concerns the target T1, canine TRPM8 (Canis lupus familiaris, UniProt Q1A7N1).
T1 construct: expressed in transfected cells
The experiment in a line: In Vitro Canine TRPM8 Functional Assay (icilin-induced intracellular Ca2+, FLIPR/FDSS). It is filed as cell-based. The settings on record: for inhibition at 0.2 µM: HEK293, 0.2 μM compound, icilin activation, read-out: % Inh @ 0.2 μM. How it is done:
The functional activity of representative compounds of the formula (I) of the present invention was quantified by measuring changes in intracellular calcium concentration using a Ca^2+-sensitive fluorescent dye. The changes in fluorescent signal were monitored by a fluorescence plate reader, either a FLIPR™ (Molecular Devices) or FDSS (Hamamatsu).
HEK293 cells stably expressing canine TRPM8 were routinely grown as monolayers in Dulbecco's minimum essential medium supplemented with 10% FBS, 2 mM L-glutamine, 100 units/mL penicillin, 100 ug/mL streptomycin and 400 μg/mL G418. Cells were maintained in 5% CO2 at 37° C. At 24 hr prior to assay, cells were seeded in black wall, clear-base poly-D-lysine coated 384-well plates (BD Biosciences, NJ, USA) at a density of 5,000 cells per well in culture medium and grown overnight in 5% CO2 at 37° C. On assay day, growth media was removed, and cells were loaded with Calcium 3 Dye (Molecular Devices) for 35 min at 37° C., under 5% CO2 and then incubated for 25 min at room temperature and atmosphere. Subsequently, cells were tested for agonist-induced increases in intracellular Ca^2+ levels using FLIPR™ or FDSS. Cells were treated with compounds of the formula (I) at varying concentrations and intracellular […] was measured for 5 min prior to the addition of icilin to all wells to achieve a final concentration that produces approximately an 80% maximal response.
Basal FI was subtracted prior to normalizing data to percent of maximal response. Curves were generated using the average of quadruplicate wells for each data point using nonlinear regression of either sigmoidal dose response or sigmoidal dose response (variable slope). Finally, the EC50 and IC50 values were calculated with the best-fit curve determined by GraphPad Prism

Where [1] appears, read: HEK293 cells stably expressing canine TRPM8.
Setting [2] is: HEK293 cells stably expressing canine TRPM8, icilin at approx. 80% maximal response, eight-point concentration-response, read-out: IC50.

Structures can show the parent of a compound that is named as a salt. Where two headings read alike, the source gives them in different places.

T1 sequence (Q1A7N1 1-1104): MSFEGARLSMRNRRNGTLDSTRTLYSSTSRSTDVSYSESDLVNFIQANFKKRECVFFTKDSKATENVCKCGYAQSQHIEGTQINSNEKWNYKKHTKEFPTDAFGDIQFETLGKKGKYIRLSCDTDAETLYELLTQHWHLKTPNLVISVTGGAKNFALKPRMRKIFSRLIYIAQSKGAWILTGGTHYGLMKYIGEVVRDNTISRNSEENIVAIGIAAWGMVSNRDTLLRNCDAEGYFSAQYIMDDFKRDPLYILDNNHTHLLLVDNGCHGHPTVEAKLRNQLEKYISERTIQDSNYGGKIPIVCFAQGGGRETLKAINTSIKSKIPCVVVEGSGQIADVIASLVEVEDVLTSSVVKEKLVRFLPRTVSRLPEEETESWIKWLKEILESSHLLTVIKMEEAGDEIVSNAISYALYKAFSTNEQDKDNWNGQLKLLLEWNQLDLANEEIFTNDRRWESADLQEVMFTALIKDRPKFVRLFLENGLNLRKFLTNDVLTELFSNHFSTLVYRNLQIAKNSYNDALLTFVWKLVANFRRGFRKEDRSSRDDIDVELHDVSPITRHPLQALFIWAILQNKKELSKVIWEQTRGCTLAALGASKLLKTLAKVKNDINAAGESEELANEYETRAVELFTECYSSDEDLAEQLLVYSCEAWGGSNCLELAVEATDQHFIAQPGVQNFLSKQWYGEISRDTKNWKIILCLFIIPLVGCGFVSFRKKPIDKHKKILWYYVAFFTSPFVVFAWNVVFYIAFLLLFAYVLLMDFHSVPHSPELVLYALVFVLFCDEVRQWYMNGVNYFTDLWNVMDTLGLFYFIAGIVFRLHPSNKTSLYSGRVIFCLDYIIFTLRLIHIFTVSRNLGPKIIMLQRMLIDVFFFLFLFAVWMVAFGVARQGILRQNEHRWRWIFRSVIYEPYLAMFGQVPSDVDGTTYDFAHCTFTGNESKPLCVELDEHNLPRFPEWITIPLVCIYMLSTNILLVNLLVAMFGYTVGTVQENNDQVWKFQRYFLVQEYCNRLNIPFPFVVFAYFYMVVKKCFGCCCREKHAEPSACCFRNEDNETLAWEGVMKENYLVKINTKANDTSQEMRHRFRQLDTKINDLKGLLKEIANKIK

On to `CCCCN(c1nc2ccccc2n1Cc1ccccc1)S(=O)(=O)c1ccccc1` [Compound #1, N-(1-benzyl-1H-benzimidazol-2-yl)-N-butyl-benzenesulfonamide], for which the inhibition at 0.2 µM under setting [1] was 19%.
For orientation: IC50 means the midpoint of a concentration-inhibition curve. As for `CN(c1nc2ccccc2n1C)S(=O)(=O)c1ccccc1` [Compound #3, N-methyl-N-(1-methyl-1H-benzimidazol-2-yl)-benzenesulfonamide], under setting [1], the inhibition at 0.2 µM was found to be 9%. For the same molecule, for the setting “re-test, 1 μM, 10 mM stock diluted with 100% DMSO prior to addition to assay buffer”, the inhibition at 1 µM came out at 101%. Also, the IC50 (re-test, 10 mM stock diluted with 100% DMSO prior to addition to assay buffer, read-out: calculated IC50) is 94 nM.
`CCCCN(c1nc2ccccc2n1C)S(=O)(=O)c1ccccc1` [Compound #4, N-Butyl-N-(1-methyl-1H-benzimidazol-2-yl)-benzenesulfonamide]: the inhibition at 0.2 µM under setting [1] stood at 92%. The IC50 under setting [2] turned out to be 41 nM.
Consider `Cn1c(N(Cc2cccc(C(F)(F)F)c2)S(=O)(=O)c2ccccc2)nc2ccccc21` [Compound #12, N-(1-Methyl-1H-benzimidazol-2-yl)-N-(3-trifluoromethyl-benzyl)-benzenesulfonamide], for which, under setting [1], the inhibition at 0.2 µM was determined as 102%. Further, the IC50 under setting [2] is 3 nM.
The corresponding values for `Cn1c(N(c2ccc(Cl)cc2)S(=O)(=O)c2ccccc2)nc2ccccc21` [Compound #36, N-(4-Chloro-phenyl)-N-(1-methyl-1H-benzimidazol-2-yl)-benzenesulfonamide] are 94% and 33 nM.
The corresponding values for `O=S(=O)(c1ccccc1)N(Cc1ccc(C(F)(F)F)c(F)c1)c1nc2ccccc2n1CC(F)(F)F` [Compound #60, N-(3-Fluoro-4-trifluoromethyl-benzyl)-N-[1-(2,2,2-trifluoro-ethyl)-1H-benzimidazol-2-yl]-benzenesulfonamide] are 89% and 27 nM.
Taken in the same sequence, the figures for `O=S(=O)(c1ccccc1)N(Cc1ccc(C(F)(F)F)c(F)c1)c1nc2ccccc2n1CC1CC1` [Compound #71, N-(1-Cyclopropylmethyl-1H-benzimidazol-2-yl)-N-(3-fluoro-4-trifluoromethyl-benzyl)-benzenesulfonamide] were 101% and 37 nM.
Consider `O=S(=O)(c1ccccc1)N(Cc1ccc(C(F)(F)F)cc1)c1nc2cccc3c2n1CCO3` [Compound #72, N-(3,4-Dihydro-5-oxa-1,2a-diaza-acenaphthylen-2-yl)-N-(4-trifluoromethyl-benzyl)-benzenesulfonamide TFA salt], for which, under setting [1], the inhibition at 0.2 µM was determined as 99%. Moreover, the IC50 under setting [2] is 22 nM.
Regarding `O=S(=O)(c1ccccc1)N(Cc1ccc(OC(F)(F)F)cc1)c1nc2cccc3c2n1CCO3` [Compound #73], the inhibition at 0.2 µM under setting [1] was 99%. Besides, under setting [2], the IC50 worked out at 3.4 nM.
Consider `CCCCN(c1nc2ccccc2n1CCO)S(=O)(=O)c1ccccc1` [compound 2, N-butyl-N-[1-(2-hydroxy-ethyl)-1H-benzimidazol-2-yl]-benzenesulfonamide], for which the inhibition at 0.2 µM under setting [1] came to 11%.
As for `Cn1c(N(Cc2ccc(F)cc2)S(=O)(=O)c2ccccc2)nc2ccccc21` [compound 8], the inhibition at 0.2 µM under setting [1] was found to be 101%. Besides, the IC50 under setting [2] came to 4 nM.
Take `Cn1c(N(Cc2ccc(F)c(F)c2)S(=O)(=O)c2ccccc2)nc2ccccc21` [compound 9]: the inhibition at 0.2 µM under setting [1] was determined as 101%. Further, the IC50 under setting [2] was found to be 2 nM.
With `Cn1c(N(Cc2ccccc2)S(=O)(=O)c2ccccc2)nc2ccccc21` [compound 10], under setting [1], the inhibition at 0.2 µM was found to be 101%. Moreover, the IC50 under setting [2] is 8 nM.
Taken in the same sequence, the figures for `Cn1c(N(Cc2ccc(C(F)(F)F)cc2)S(=O)(=O)c2ccccc2)nc2ccccc21` [compound 11] were 101% and 2 nM.
Consider `Cn1c(N(Cc2cccc(OC(F)(F)F)c2)S(=O)(=O)c2ccccc2)nc2ccccc21` [compound 13], for which, under setting [1], the inhibition at 0.2 µM is 101%. Further, the IC50 under setting [2] worked out at 3 nM.
For `Cn1c(N(Cc2ccc(F)c(C(F)(F)F)c2)S(=O)(=O)c2cccc(Cl)c2)nc2ccccc21` [compound 14], under setting [1], the inhibition at 0.2 µM stood at 97%. Under setting [2], the concentration for half-maximal inhibition (IC50) was 30 nM.

Source of the values: patent publication US8242157B2, “Benzimidazole derivatives useful as TRPM8 channel modulators” (Janssen Pharmaceutica NV, priority 2009, dated 2012).
